Some results are limits rather than exact numbers.

What is called half-life is the time needed for the level to fall by half in the phase considered.

The conditions of data set [1]: STINGa on its own; ref [11]; cited from earlier work.
For a further data set, the system named is CT26 tumors. Kind of data set: Treatment of small (100 mm^3) CT26 tumors in Balb/c mice. The format is in vivo, mouse. The note with it: single injection, same molar dose level as pHLIP-STINGa. The method, then: On day 1, when tumors reached size of 100 mm^3 (“small tumors”) or 400-700 mm^3 (“large tumors”), mice were randomized into groups, body weight was measured and agents including pHLIP(Laa)-STINGa, pHLIP(Daa)-STINGa, pHLIP(Laa), STINGa (diABZI) or vehicle were given as a single intraperitoneal (IP) or intravenous (IV) injection. Vehicle, pHLIP(Laa), STINGa (diABZI) and pHLIP(Laa)-STINGa were given as a single IP injection of 100 μM 300 µl. pHLIP(Daa)-STINGa was given as a single IV injection of 200 μM 150 μl. The compounds were dissolved in DMSO as a stock solution and transferred to 20% PEG400 in saline containing 0.9% sodium chloride (vehicle). The residual DMSO in the final solution injected into animals was less than 2%. Tumor volume and body weight were measured 3 times per week throughout the study. Measurements of tumors were performed using calipers, and the tumor volume (V) was calculated with the formula: […]
where L is the length and W is the width of the measured tumor. Mice were removed from the study and euthanized when the tumor volume was greater than 2000 mm^3.

Turning to diABZI [STINGa], the half-life in data set [1] is 1.4 h. Besides, the “time by which all animals developed tumors” value in the data set with CT26 tumors was at most 35 days p.i.

Source of the values: publication PMC9622777, “Eradication of tumors and development of anti-cancer immunity using STINGa targeted by pHLIP” (Frontiers in Oncology, 2022).
